In ChEMBL document CHEMBL6109064, “Functional and structural polypharmacology of indazole-based privileged ligands to tackle the undruggability of membrane transporters” (Eur J Med Chem, 2025):
Activity calls are given as the source filed them. The rule behind the calls is not given here.

How the values were obtained:
Type in all cases: cell-based
[1] = biological target: T1, Solute carrier family 22 member 2 (Homo sapiens, UniProt O15244); experiment: Inhibition of OCT2 (unknown origin) expressed in HEK293 cells assessed as inhibition of ASP+ uptake incubated for 5 mins by fluorescence based analysis
T1 sequence (O15244 whole entry): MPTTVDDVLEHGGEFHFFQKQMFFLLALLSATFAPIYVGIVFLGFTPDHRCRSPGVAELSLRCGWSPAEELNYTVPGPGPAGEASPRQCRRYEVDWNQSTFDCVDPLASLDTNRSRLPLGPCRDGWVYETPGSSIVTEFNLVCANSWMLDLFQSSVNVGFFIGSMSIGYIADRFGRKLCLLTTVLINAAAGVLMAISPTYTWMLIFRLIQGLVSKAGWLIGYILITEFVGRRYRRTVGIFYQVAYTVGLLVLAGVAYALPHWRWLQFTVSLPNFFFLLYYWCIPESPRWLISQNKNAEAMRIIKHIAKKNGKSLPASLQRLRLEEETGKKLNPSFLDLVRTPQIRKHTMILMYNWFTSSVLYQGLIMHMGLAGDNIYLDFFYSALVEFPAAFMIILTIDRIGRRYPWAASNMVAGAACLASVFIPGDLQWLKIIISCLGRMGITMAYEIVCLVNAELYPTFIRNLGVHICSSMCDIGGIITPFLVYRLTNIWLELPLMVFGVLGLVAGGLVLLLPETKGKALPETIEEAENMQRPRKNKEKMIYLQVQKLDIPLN

[2] = biological target: ATP-dependent translocase ABCB1 (Homo sapiens, UniProt P08183); experiment: Inhibition of ABCB1 in human A2780 ADR cells assessed as increase in daunorubicin fluorescence intensity using daunorubicin as tracer preincubated for 30 mins followed by daunorubicin addition and measured for 180 mins by flow cytometry
Chain of ATP-dependent translocase ABCB1 (P08183 whole entry): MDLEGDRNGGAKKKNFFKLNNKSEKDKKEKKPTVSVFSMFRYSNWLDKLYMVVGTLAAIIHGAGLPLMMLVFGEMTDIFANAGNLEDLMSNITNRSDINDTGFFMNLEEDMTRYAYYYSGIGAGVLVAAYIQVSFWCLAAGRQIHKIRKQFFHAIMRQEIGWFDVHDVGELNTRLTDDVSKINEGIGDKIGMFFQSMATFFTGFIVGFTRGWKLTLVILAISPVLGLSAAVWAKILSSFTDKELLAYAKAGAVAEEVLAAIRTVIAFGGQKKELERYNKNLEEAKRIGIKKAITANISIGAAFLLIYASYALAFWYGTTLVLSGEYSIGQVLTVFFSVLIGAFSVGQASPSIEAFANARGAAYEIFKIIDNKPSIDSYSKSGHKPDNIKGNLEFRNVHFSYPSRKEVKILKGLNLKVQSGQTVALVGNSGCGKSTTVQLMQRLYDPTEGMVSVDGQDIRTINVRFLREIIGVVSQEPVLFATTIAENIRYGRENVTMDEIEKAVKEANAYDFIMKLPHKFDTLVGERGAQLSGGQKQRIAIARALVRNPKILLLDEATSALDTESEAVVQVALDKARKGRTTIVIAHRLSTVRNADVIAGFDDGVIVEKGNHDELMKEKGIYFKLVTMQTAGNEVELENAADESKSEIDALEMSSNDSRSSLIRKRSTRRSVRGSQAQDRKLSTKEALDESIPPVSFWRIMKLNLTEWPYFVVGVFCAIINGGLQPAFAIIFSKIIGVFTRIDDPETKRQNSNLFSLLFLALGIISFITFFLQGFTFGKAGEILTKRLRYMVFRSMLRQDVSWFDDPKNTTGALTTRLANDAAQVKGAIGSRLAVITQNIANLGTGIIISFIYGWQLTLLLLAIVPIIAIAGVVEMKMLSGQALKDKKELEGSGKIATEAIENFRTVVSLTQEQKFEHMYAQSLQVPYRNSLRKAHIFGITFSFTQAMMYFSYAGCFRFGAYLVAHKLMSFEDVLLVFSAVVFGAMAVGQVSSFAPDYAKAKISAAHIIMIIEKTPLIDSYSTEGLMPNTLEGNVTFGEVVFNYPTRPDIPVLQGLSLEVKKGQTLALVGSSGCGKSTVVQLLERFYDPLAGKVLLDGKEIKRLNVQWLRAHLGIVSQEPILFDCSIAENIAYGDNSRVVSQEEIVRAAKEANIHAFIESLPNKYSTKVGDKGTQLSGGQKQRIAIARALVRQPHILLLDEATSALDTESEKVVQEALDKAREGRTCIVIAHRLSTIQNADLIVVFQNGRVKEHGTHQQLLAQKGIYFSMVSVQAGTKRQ

[3] = biological target: T2, Solute carrier organic anion transporter family member 1B1 (Homo sapiens, UniProt Q9Y6L6); experiment: Inhibition of OATP1B1 (unknown origin) transfected in human A-431 cells assessed as inhibition of DHPDS uptake preincubated for 5 mins followed by DHPDS addition and measured after 10 mins by fluorescence based analysis
T2 sequence (Q9Y6L6 whole entry): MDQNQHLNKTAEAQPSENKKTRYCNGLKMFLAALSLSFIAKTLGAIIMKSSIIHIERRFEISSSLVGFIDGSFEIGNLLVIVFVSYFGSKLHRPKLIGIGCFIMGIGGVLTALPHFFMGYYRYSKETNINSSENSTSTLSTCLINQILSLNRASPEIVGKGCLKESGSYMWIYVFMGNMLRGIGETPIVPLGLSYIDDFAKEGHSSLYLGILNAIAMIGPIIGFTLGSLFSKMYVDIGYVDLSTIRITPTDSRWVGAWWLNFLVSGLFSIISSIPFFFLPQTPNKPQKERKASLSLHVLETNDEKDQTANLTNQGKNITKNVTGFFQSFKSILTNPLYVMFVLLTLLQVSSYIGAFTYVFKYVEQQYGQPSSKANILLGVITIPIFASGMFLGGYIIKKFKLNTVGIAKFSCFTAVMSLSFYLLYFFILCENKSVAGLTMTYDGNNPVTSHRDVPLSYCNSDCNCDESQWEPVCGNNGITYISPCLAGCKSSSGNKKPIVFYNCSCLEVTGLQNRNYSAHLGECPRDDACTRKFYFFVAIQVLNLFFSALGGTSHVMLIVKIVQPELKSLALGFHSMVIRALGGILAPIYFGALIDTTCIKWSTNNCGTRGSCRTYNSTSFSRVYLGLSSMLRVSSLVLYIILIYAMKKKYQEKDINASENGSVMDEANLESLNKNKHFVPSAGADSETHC

[4] = biological target: T3, Solute carrier family 22 member 1 (Homo sapiens, UniProt O15245); experiment: Inhibition of OCT1 (unknown origin) expressed in HEK293 cells assessed as inhibition of ASP+ uptake incubated for 5 mins by fluorescence based analysis; conditions: hek293, 5 min
T3 sequence (O15245 whole entry): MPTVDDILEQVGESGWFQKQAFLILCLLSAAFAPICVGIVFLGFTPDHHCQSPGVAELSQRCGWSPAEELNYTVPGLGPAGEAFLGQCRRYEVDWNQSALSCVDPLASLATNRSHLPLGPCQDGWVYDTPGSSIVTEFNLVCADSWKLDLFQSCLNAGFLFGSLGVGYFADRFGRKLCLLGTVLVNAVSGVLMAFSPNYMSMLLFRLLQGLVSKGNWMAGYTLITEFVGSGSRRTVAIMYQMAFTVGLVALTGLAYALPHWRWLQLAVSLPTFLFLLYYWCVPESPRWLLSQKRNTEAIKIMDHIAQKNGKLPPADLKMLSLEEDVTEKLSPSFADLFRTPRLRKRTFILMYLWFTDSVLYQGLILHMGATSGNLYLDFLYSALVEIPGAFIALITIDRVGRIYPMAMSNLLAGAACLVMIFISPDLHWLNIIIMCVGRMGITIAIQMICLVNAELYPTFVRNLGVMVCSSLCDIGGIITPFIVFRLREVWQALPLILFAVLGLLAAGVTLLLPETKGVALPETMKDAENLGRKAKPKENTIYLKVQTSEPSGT

[5] = biological target: Sodium-dependent serotonin transporter (Homo sapiens) (UniProt P31645); experiment: Inhibition of SERT (unknown origin) expressed in HEK293 cells assessed as inhibition of MPP+ transport incubated for 5 mins by tandem mass spectrometry
Chain of Sodium-dependent serotonin transporter (Homo sapiens) (P31645 whole entry, looked up): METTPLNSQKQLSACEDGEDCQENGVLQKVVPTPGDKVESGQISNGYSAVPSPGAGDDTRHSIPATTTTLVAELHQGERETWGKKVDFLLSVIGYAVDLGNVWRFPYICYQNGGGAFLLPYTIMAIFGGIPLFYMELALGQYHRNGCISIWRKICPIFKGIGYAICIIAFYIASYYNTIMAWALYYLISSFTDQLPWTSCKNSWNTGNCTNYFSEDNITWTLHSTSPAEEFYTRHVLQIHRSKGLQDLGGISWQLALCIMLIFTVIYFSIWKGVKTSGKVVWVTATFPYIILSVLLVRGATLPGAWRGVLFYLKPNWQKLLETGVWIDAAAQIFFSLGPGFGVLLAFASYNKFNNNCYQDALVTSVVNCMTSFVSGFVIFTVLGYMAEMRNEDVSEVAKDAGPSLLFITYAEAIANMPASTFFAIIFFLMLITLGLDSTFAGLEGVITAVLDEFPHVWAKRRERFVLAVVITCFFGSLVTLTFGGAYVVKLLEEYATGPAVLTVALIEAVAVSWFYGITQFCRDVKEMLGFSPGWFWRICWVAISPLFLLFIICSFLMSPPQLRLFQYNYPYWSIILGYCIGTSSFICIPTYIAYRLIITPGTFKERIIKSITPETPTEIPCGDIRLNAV

[6] = biological target: T4, Solute carrier organic anion transporter family member 1A2 (Homo sapiens, UniProt P46721); experiment: Inhibition of OATP1A2 (unknown origin) transfected in human A-431 cells assessed as inhibition of SR101 uptake preincubated for 5 mins followed by SR101 addition and measured after 10 mins by fluorescence based analysis
T4 sequence (P46721 whole entry): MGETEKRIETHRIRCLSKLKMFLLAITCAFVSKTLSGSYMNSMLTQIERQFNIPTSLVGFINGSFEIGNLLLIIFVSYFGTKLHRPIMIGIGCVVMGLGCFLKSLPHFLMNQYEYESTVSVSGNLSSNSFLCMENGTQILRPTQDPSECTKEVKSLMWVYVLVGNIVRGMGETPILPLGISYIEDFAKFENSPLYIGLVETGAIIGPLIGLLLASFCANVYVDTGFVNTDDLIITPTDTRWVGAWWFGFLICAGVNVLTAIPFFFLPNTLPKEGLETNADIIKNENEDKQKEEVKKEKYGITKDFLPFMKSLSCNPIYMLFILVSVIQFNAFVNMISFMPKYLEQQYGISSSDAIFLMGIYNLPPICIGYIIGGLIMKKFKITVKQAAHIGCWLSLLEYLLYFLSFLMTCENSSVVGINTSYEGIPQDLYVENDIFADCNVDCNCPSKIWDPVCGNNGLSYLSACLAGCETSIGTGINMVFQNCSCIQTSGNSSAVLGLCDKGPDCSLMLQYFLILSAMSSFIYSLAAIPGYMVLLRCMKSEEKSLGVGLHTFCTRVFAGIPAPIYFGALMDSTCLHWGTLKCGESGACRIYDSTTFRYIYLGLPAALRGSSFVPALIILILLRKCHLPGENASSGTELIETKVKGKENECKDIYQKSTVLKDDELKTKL

IC50 [1] [µM]	IC50 [2] [µM]	IC50 [3] [µM]	inhibition (INH) [4]	inhibition [5]	IC50 [6] [µM]	SMILES
50.3	1.74	16.8	Not_active	inactive	1.32	O=C(Cn1nc(C(=O)Nc2ccccn2)c2ccccc21)Nc1cc(Cl)ccc1Cl
60.1	8	17.9	Not_active	inactive	0.422	O=C(Cn1nc(C(=O)Nc2cccnc2)c2ccccc21)Nc1ccc(Cl)cc1
20.8	1.43	4.96	Not_active	inactive	0.42	COc1cccc(NC(=O)Cn2nc(C(=O)Nc3cccc(OC)c3)c3ccccc32)c1
11.8	2.18	5.66	Not_active	inactive	0.237	COc1cccc(NC(=O)c2nn(CC(=O)Nc3ccccc3OC)c3ccccc23)c1
